Laboratory results from PubChem BioAssay (NCI).
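Growth conditions: 96-well plates. Treatment: test compound, 48 hours, 5 concentrations. Analysis: linear interpolation between bracketing concentrations; unreached endpoints set to highest concentration. GI50 marks 50% less growth. Definition used: TGI = concentration required for complete inhibition of growth.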

What was measured:
Assay in all cases: inhibition of tumour cell growth, NCI panel, 48 h
CAKI-1 renal = system: CAKI-1 renal
COLO 205 colon = system: COLO 205 colon
HCT-116 colon = system: HCT-116 colon
HT29 colon = system: HT29 colon
NCI-H460 lung = system: NCI-H460 lung
PC-3 prostate = system: PC-3 prostate
SF-539 CNS = system: SF-539 CNS
SK-MEL-28 melanoma = system: SK-MEL-28 melanoma
SK-OV-3 ovarian = system: SK-OV-3 ovarian
SN12C renal = system: SN12C renal

SMILES	GI50 (CAKI-1 renal) [µM]	TGI (CAKI-1 renal) [µM]	GI50 (COLO 205 colon) [µM]	TGI (COLO 205 colon) [µM]	GI50 (HCT-116 colon) [µM]	TGI (HCT-116 colon) [µM]	GI50 (HT29 colon) [µM]	TGI (HT29 colon) [µM]	GI50 (NCI-H460 lung) [µM]	TGI (NCI-H460 lung) [µM]	GI50 (PC-3 prostate) [µM]	TGI (PC-3 prostate) [µM]	GI50 (SF-539 CNS) [µM]	TGI (SF-539 CNS) [µM]	GI50 (SK-MEL-28 melanoma) [µM]	TGI (SK-MEL-28 melanoma) [µM]	GI50 (SK-OV-3 ovarian) [µM]	TGI (SK-OV-3 ovarian) [µM]	GI50 (SN12C renal) [µM]	TGI (SN12C renal) [µM]
CCN1CCC2(CC1)NC(=O)c1c(c3ccc(Cl)c(Cl)c3n1C)C2C#N (stereo unspecified)	2.25	8.23	1.86	4.11	2.49	4.29	1.92	4.11	2.34	6.45	> 100	> 100	1.89	4.52	1.65	3.07	6.99	22.2	4.1	16.3
NC(=O)c1ccc2nc(-c3ccc(C4(N)CCC4)cc3)c(-c3ccccc3)n2n1	10.3	23.9	0.976	19	10.2	22.6	1.5	25.7	2.15	19.4	0.183	20.1	2.13	13.7	10.9	23.7	0.243	12.7	12	27.5
Nc1c(S(=O)(=O)O)cc(Nc2cccc(S(N)(=O)=O)c2)c2c1C(=O)c1ccccc1C2=O	–	> 100	–	> 100	–	> 100	–	> 100	–	> 100	–	> 100	–	> 100	–	> 100	–	84.6	–	> 100
Cc1cc(C(=O)N[C@@H](CCC(=O)O)C(=O)O)sc1CC[C@@H]1CNc2nc(N)[nH]c(=O)c2C1	< 0.01	> 100	0.0309	> 100	< 0.0127	> 100	< 0.0178	> 100	< 0.0119	> 100	< 0.01	> 100	< 0.01	> 100	0.0377	> 100	< 0.0205	> 100	0.0253	> 100
C/C(=C1/N=C(c2ccccc2)OC1=O)c1ccc(C)cc1	–	> 100	–	> 100	–	> 100	–	> 100	–	> 100	–	> 100	–	> 100	–	> 100	–	> 100	–	> 100
COc1cc(-c2cc(-c3nc4cc(Cl)c(Cl)cc4[nH]3)[nH]n2)cc(OC)c1OC	3.81	12.9	3.77	12.7	2.78	10.3	3.42	12.5	3.33	12.9	2.2	7.89	3.28	13.4	3.07	12.3	17.3	53	3.05	13.4
O=C1c2ccccc2C(=O)c2c(NC(=O)C(Cl)CCl)cccc21 (stereo unspecified)	–	38.8	–	26.9	–	28.4	–	10.5	–	31.1	–	24.3	–	11.5	–	35.5	–	39.1	–	21.4
O=C(CCc1ccco1)NC1CCN(CC2(c3ccc(Cl)cc3)CCC2)CC1	13.3	27.2	15.3	31.8	12.2	24.5	3.44	11.8	15.1	28.4	14.1	31.1	13.4	26.6	15.3	29.1	16.9	32.9	15.4	33.1
COc1ccc(N2CCN(CN3CCN(c4ccc(OC)cc4)C3)C2)cc1	> 100	> 100	> 100	> 100	20.2	50	> 100	> 100	> 100	> 100	> 100	> 100	> 100	> 100	> 100	> 100	> 100	> 100	> 100	> 100
COc1cc(/C=C/C(=O)NC[C@]2(O)CCC3C4CCc5cc(O)ccc5C4CCC32C)ccc1O (stereo partly specified)	46.9	> 100	13.4	64.5	7.97	49.3	3.68	28.6	9.47	> 100	5.2	> 100	16.1	> 100	33.9	> 100	82.6	> 100	25.4	> 100
C=CCC(N[C@@H](CO)c1ccccc1)c1ccccn1 (stereo partly specified)	> 100	> 100	> 100	> 100	> 100	> 100	> 100	> 100	–	–	> 100	> 100	> 100	> 100	> 100	> 100	> 100	> 100	22.9	> 100
CCN1/C(=C/C=C/C=C/c2sc3ccccc3[n+]2CC)Sc2ccccc21	0.376	2.29	0.191	0.347	0.181	0.828	0.23	1.2	0.2	1.06	0.243	1.39	0.377	2.49	0.72	2.75	0.359	1.13	0.327	1.76
Clc1ccccc1-c1nc(-c2ccncc2)no1	–	> 100	–	> 100	–	> 100	–	> 100	–	> 100	–	> 100	–	> 100	–	> 100	–	> 100	–	> 100
FC(F)(F)c1[nH]ncc1-c1nc2c(N3CCCCC3)cc3[nH]ncc3c2c2c1CCCC2	0.711	3.06	–	–	0.432	3.57	1.3	> 50	0.49	1.9	0.91	> 13.8	0.567	1.22	0.617	1.78	0.523	4.22	0.878	> 15.7
